From ChEMBL document CHEMBL4138081, “Recent developments of coumarin-containing derivatives and their anti-tubercular activity” (Eur J Med Chem, 2017)
Converted amounts (≈) assume the structure as drawn.

Experiments:
[1] = system: Mycobacterium tuberculosis; assay: Antimycobacterial activity against Mycobacterium tuberculosis after 5 days by MABA; type: functional; conditions: 120 h
[2] = system: Mycobacterium tuberculosis; assay: Antimycobacterial activity against Mycobacterium tuberculosis ATCC 27294 by MABA; type: functional
[3] = system: Mycolicibacterium smegmatis; assay: Antimycobacterial activity against Mycobacterium smegmatis CMCC 93202; type: functional
[4] = system: Mycolicibacterium smegmatis; assay: Potency index, ratio of ciprofloxacin MIC to compound MIC for Mycobacterium smegmatis CMCC 93202; type: functional
[5] = system: Mycolicibacterium smegmatis; assay: Potency index, ratio of MIC for 8-OCH3 ciprofloxacin to MIC for test compound for Mycobacterium smegmatis CMCC 93202; type: functional
[6] = system: Mycolicibacterium smegmatis; assay: Potency index, ratio of MIC for moxifloxacin to MIC for test compound for Mycobacterium smegmatis CMCC 93202; type: functional
[7] = system: Mycolicibacterium smegmatis; assay: Potency index, ratio of MIC for rifampin to MIC for test compound for Mycobacterium smegmatis CMCC 93202; type: functional
[8] = system: Mycobacterium tuberculosis; assay: Antimycobacterial activity against Mycobacterium tuberculosis H37Rv […] by BACTEC MGIT method; type: functional
[9] = system: Mycobacterium tuberculosis; assay: Antimycobacterial activity against Mycobacterium tuberculosis H37Rv after 12 to 28 days by Lowenstein and Jensen method; type: functional
[10] = system: Mycolicibacterium vaccae; assay: Antimycobacterial activity against Mycolicibacterium vaccae 10670; type: functional
[11] = system: Mycobacterium tuberculosis; assay: Antimycobacterial activity against Mycobacterium tuberculosis H37Rv after 72 hrs by alamar blue dye-based broth dilution assay; type: functional
[12] = system: Mycobacterium tuberculosis; assay: Antimycobacterial activity against Mycobacterium tuberculosis H37Rv by broth dilution assay; type: functional
[13] = system: Mycobacterium tuberculosis; assay: Antimycobacterial activity against Mycobacterium tuberculosis H37Rv by MABA; type: functional
[14] = system: Mycobacterium tuberculosis; assay: Growth inhibition of Mycobacterium tuberculosis H37Rv at 6.25 ug/ml by MABA method relative to control; type: functional; conditions: read-out: GI
[15] = system: Mycobacterium tuberculosis; assay: Antimycobacterial activity against Mycobacterium tuberculosis H37Rv ATCC 27294 by BACTEC method; type: functional
[16] = system: Mycobacterium tuberculosis; assay: Antimycobacterial activity against Mycobacterium tuberculosis H37Rv by BACTEC radiometric assay; type: functional
[17] = Cytotoxicity against African green monkey Vero cells by CellTiter 96 non-radioactive cell proliferation assay; type: cell-based; conditions: chlorocebus sabaeus, read-out: LD50 (the source's name)
[18] = Selectivity index, ratio of LD50 for African green monkey Vero cells to MIC>99 for Mycobacterium tuberculosis H37Rv; type: toxicity; conditions: read-out: Selectivity Index

Molecule `Cc1cc(=O)oc2cc(OCc3cn(Cc4cc(=O)oc5ccc6ccccc6c45)nn3)ccc12` has an MIC [1] of 6.25 µg/mL (≈ 13.4 µM).
Work on `Cc1cc(=O)oc2cc(OCc3cn(Cc4cc(=O)oc5cc(Cl)ccc45)nn3)ccc12` yielded an MIC [1] of 6.25 µg/mL (≈ 13.9 µM).
`O=C(N/N=C/c1cccc(O)c1)c1cc2ccccc2oc1=O` showed an MIC [2] of 50 to 100 µg/mL (≈ 162 to 324 µM).
In the case of `Cc1cc(=O)oc2cc(OCc3cn(Cc4cc(=O)oc5ccc(Cl)cc45)nn3)ccc12`, the MIC [1] was 6.25 µg/mL (≈ 13.9 µM).
In the case of `COc1ccc2cc(C(=O)CN3CCN(c4c(F)cc5c(=O)c(C(=O)O)cn(C6CC6)c5c4OC)CC3)c(=O)oc2c1`, the MIC [3] was 0.25 µg/mL (≈ 0.433 µM), the Ratio [4] was 2 - 8 and the Ratio [5] was 2 - 8. The Ratio [6] was 2 - 8 and the Ratio [7] was 2 - 8.
With `O=C(N/N=C/c1ccc([N+](=O)[O-])cc1)c1cc2ccccc2oc1=O` the MIC [2] was 50 to 100 µg/mL (≈ 148 to 296 µM).
Molecule `N#Cc1ccc(Nc2nc(Oc3cc(=O)oc4ccccc34)nc(N3CCN(c4cccc(C(F)(F)F)c4)CC3)n2)cc1C(F)(F)F` has an MIC [8] of over 6.25 µg/mL and an MIC [9] of 100 to 1000 µg/mL (≈ 153 to 1530 µM).
Work on `Cc1ccc2oc(=O)c3c(O)c4cccc(O[C@@H]5O[C@H](C)[C@@H](O)[C@H](O)[C@H]5O[C@@H]5O[C@@H](C)[C@@H](O)[C@@H](O)[C@@H]5O)c4c4oc(=O)c1c2c34` yielded an MIC [10] of 1.22 µM (≈ 0.764 µg/mL).
For `COc1cccc(/C=N/NC(=O)c2cc3ccccc3oc2=O)c1`, the MIC [2] was 50 to 100 µg/mL (≈ 155 to 310 µM).
For `Cc1cc2oc(=O)c(C(c3cccs3)c3c(O)c4cc(C)c(C)cc4oc3=O)c(C)c2cc1C` (stereo unspecified), the MIC [11] was 5.22 µM (≈ 2.47 µg/mL).
Molecule `O=c1oc2ccccc2cc1-c1cn2nc(C(F)(F)F)sc2n1` has an MIC [12] of 40 µg/mL (≈ 119 µM).
For `O=C(N/N=C/c1ccc(O)cc1O)c1cc2ccccc2oc1=O`, the MIC [2] was 50 to 100 µg/mL (≈ 154 to 308 µM).
`N#Cc1ccc(Nc2nc(Oc3cc(=O)oc4ccccc34)nc(N3CCN(c4ccccc4F)CC3)n2)cc1C(F)(F)F` gave an MIC [8] of over 6.25 µg/mL and an MIC [9] of 100 to 1000 µg/mL (≈ 166 to 1660 µM).
`Cn1c(=O)cc(Oc2nc(Nc3ccc(C#N)c(C(F)(F)F)c3)nc(N3CCN(c4ccc(F)cc4)CC3)n2)c2ccccc21` showed an MIC [8] of over 6.25 µg/mL and an MIC [9] of 100 to 1000 µg/mL (≈ 162 to 1620 µM).
With `COc1ccc(/C=N/NC(=O)c2cc3ccccc3oc2=O)cc1` the MIC [2] was 50 to 100 µg/mL (≈ 155 to 310 µM).
Work on `O=C(N/N=C/c1cccc(Cl)c1)c1cc2ccccc2oc1=O` yielded an MIC [2] of 50 to 100 µg/mL (≈ 153 to 306 µM).
`COc1ccc(-c2cc(-c3ccc(O)cc3)nc(/N=c3\ccc4ccccc4o3)n2)cc1` gave an MIC [13] of 9.6 to 240 µg/mL (≈ 22.8 to 569 µM) and an inhibition of growth at 6.25 µg/mL [14] of 37%.
In the case of `O=C(N/N=C/c1ccc(O)cc1)c1cc2ccccc2oc1=O`, the MIC [2] was 50 to 100 µg/mL (≈ 162 to 324 µM).
For `N#Cc1ccc(Nc2nc(Oc3cc(=O)oc4ccccc34)nc(N3CCN(c4ccc(F)cc4)CC3)n2)cc1C(F)(F)F`, the MIC [8] was over 6.25 µg/mL and the MIC [9] was 100 to 1000 µg/mL (≈ 166 to 1660 µM).
With `Cn1c(=O)cc(Oc2nc(Nc3ccc(C#N)c(C(F)(F)F)c3)nc(N3CCN(c4cccc(C(F)(F)F)c4)CC3)n2)c2ccccc21` the MIC [8] was over 6.25 µg/mL and the MIC [9] was 100 to 1000 µg/mL (≈ 150 to 1500 µM).
In the case of `N#Cc1ccc(Nc2nc(Oc3cc(=O)oc4ccccc34)nc(N3CCN(c4ccc(C(F)(F)F)cc4)CC3)n2)cc1C(F)(F)F`, the MIC [8] was over 6.25 µg/mL and the MIC [9] was 100 to 1000 µg/mL (≈ 153 to 1530 µM).
`COc1ccc(-c2cc(-c3ccc([N+](=O)[O-])cc3)nc(/N=c3\ccc4ccccc4o3)n2)cc1` gave an MIC [13] of 9.6 to 240 µg/mL (≈ 21.3 to 533 µM) and an inhibition of growth at 6.25 µg/mL [14] of 65%.
For `Cn1c(=O)cc(Oc2nc(Nc3ccc(C#N)c(C(F)(F)F)c3)nc(N3CCN(c4ccc(C(F)(F)F)cc4)CC3)n2)c2ccccc21`, the MIC [8] was over 6.25 µg/mL and the MIC [9] was 100 to 1000 µg/mL (≈ 150 to 1500 µM).
Work on `Cn1c(=O)cc(Oc2nc(Nc3ccc(C#N)c(C(F)(F)F)c3)nc(N3CCN(c4ccccc4F)CC3)n2)c2ccccc21` yielded an MIC [8] of over 6.25 µg/mL and an MIC [9] of 100 to 1000 µg/mL (≈ 162 to 1620 µM).
For `O=c1oc2ccccc2cc1C(c1cccs1)c1c(O)c2ccccc2oc1=O` (stereo unspecified), the MIC [11] was 5.22 µM (≈ 2.1 µg/mL).
`Oc1ccc(-c2cc(-c3ccc(Cl)cc3)nc(/N=c3\ccc4ccccc4o3)n2)cc1` showed an MIC [13] of 9.6 to 240 µg/mL (≈ 22.5 to 564 µM) and an inhibition of growth at 6.25 µg/mL [14] of 70%.
Work on `CCCc1cc(=O)oc2c3c(c4c(c12)OC(C)(C)C=C4)O[C@H](C)[C@@H](C)[C@@H]3O` [CALANOLIDE A] yielded an MIC [15] of 3.13 µg/mL (≈ 8.45 µM).
Work on `NC(=O)c1cnccn1` [PYRAZINAMIDE] yielded an MIC [2] of over 100 µg/mL.
In the case of `C[C@H]1[C@H](C)Oc2c3c(c4c(-c5ccccc5)cc(=O)oc4c2[C@H]1O)OC(C)(C)C=C3` [SOULATTROLIDE], the MIC99 [16] was 3.13 µg/mL (≈ 7.74 µM), the CC50 [17] was over 10 µg/mL and the selectivity ratio [18] was over 3.2.
